Experimental data taken from publication PMC6957263 (Bioorganic & medicinal chemistry letters, 2013).

How the values were obtained:
[1] = biological target: T1, human TRPV1 heterologously expressed in CHO cells (Homo sapiens, UniProt Q8NER1); test: functional 45Ca2+ uptake assay; type: cell-based
[2] = biological target: T1, human TRPV1 heterologously expressed in CHO cells; test: binding competition assay with [3H]RTX; conditions: for fold less potent than the racemate in binding affinity: 2S vs 2, 3S vs 3; for fold greater potency than the racemate in binding affinity: 2R vs 2, 3R vs 3
[3] = human TRPV1, within ca. x-fold of RTX

T1 sequence (Q8NER1 whole entry): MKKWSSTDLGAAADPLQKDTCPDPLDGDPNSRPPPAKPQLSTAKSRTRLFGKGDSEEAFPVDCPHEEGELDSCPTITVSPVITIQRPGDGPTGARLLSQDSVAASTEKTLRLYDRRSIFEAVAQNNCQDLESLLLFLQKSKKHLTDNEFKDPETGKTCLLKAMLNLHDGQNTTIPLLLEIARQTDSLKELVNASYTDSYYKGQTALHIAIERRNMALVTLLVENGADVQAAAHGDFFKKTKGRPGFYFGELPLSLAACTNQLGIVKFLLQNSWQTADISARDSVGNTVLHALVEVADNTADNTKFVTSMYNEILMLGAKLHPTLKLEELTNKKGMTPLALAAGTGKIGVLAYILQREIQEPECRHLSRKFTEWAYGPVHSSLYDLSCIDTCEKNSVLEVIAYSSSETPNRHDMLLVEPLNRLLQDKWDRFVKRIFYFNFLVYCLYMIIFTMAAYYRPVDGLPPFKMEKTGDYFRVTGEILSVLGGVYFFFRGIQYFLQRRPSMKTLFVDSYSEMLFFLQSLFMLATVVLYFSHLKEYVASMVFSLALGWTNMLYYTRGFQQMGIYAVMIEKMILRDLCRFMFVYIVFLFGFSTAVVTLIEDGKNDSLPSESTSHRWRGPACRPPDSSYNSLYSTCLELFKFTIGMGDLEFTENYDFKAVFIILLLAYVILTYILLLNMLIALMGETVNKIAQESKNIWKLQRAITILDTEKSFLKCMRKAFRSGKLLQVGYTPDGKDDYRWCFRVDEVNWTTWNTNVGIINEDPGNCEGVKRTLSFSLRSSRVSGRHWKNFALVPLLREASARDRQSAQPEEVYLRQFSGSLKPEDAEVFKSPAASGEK

CC(C)(C)C(=O)OCC(CNC(=S)NCc1ccc(NS(C)(=O)=O)c(F)c1)Cc1ccc(C(C)(C)C)cc1 (stereo not drawn) [Compound 3]
fold less potent than I-RTX in antagonism ([1]; hTRPV1): ~20 fold | fold less potent than I-RTX in binding affinity ([2]; hTRPV1): ca. 2 fold

COc1cc(CNC(=S)NC[C@@H](COC(=O)C(C)(C)C)Cc2ccc(C(C)(C)C)cc2)ccc1O [Compound 2S]
fold less potent than 2 in agonism ([1]; hTRPV1): 7 fold | fold less potent than the racemate in binding affinity ([2]; hTRPV1): 1.1 fold

COc1cc(CNC(=S)NC[C@H](COC(=O)C(C)(C)C)Cc2ccc(C(C)(C)C)cc2)ccc1O [Compound 2R]
fold greater potency than the racemate 2 in agonism ([1]; hTRPV1): 1.5 fold | fold greater potency than the racemate in binding affinity ([2]; hTRPV1): 2 fold

CC(C)(C)C(=O)OC[C@@H](CNC(=S)NCc1ccc(NS(C)(=O)=O)c(F)c1)Cc1ccc(C(C)(C)C)cc1 [Compound 3R]
fold greater potency than 3 in antagonism ([1]; hTRPV1): 1.3 fold | fold greater potency than the racemate in binding affinity ([2]; hTRPV1): 1.3 fold

CC(C)(C)C(=O)OC[C@H](CNC(=S)NCc1ccc(NS(C)(=O)=O)c(F)c1)Cc1ccc(C(C)(C)C)cc1 [Compound 3S]
fold less potency compared to 3 in antagonism ([1]; hTRPV1): 1.3 fold | fold less potent than the racemate in binding affinity ([2]; hTRPV1): 3 fold

COc1cc(CNC(=S)NCC(COC(=O)C(C)(C)C)Cc2ccc(C(C)(C)C)cc2)ccc1O (stereo not drawn) [Compound 2]
fold of the potency of RTX in agonism [1, 3]: ~1.5 fold | fold of the potency of RTX in binding affinity [2, 3]: ca. 5 fold
